The subject of one data set is Klebsiella pneumoniae. Kind of data set: pH-based urease activity assay, pure K. pneumoniae culture in M9U minimal medium. It is filed as cell-based, Klebsiella pneumoniae subsp. pneumoniae. The settings on record: for Reduction in ureolytic activity: pure K. pneumonia culture. How it is done: (§1) The urease stock was stored at −20° C.
All M9U components except glucose, urea, FeCl2, ZnSO4, and vitamins were mixed, the pH adjusted to 6.8 and the medium was autoclaved. Glucose, urea, FeCl2, ZnSO4, and BME Vitamin solution were sterile-filtered and added aseptically after autoclaving. Urea was added within 24 h before the medium was used.
(§2) The assay consists of a buffered urea solution containing the pH indicator phenol red and the inhibitor to be tested. […] Each compound was screened at three concentrations (10×, 100× and 1000× dilutions of the stock) in triplicate against K. pneumoniae and purified JBU. To this solution ureolytic bacteria or urease is added and the solution is incubated in a plate reader which every 15 minutes measure the absorbance at 557 nm and 630 nm (A557 and A630). Thus, inhibitor and bacteria/urease was not pre-incubated. For microbial urease activity experiments, K. pneumoniae and E. coli were grown overnight in the respective growth media. […] To each well 80 μl bacterial suspension, 100 μl growth media, and 20 μl inhibitor solution was added. Increase in absorbance at 557 nm reflects increasing pH (until saturation of the indicator at pH 8.2) and increase in absorbance at 630 nm reflects bacterial growth (optical density). In the case of ureolytic bacteria or enzymes in urea solution the increase in pH can be ascribed to the production of alkaline NH3. […] In the bacterial assay inhibitors were evaluated based on three parameters: maximal or final pH increase, onset of pH increase and rate of pH increase. The relative maximal pH increase was determined as pHmax=A557-A630. The onset of the pH increase was defined as the point where the ureolytic production of NH3 overcame the buffer capacity resulting in a colour change of the phenol red indicator measured as an absorbance increase at 557 nm. […] For each inhibitor the influence on the bacterial growth was also evaluated by identifying the end of the lag phase (onset of exponential growth), the growth rate and the maximal OD630.

Data set [1] concerns pig manure slurry. Kind of data set: total ammoniacal nitrogen (Kjeldahl) in fresh pig manure slurry. How it is done: Total ammoniacal nitrogen (TAN) was measured in pig manure slurry using the Kjeldahl method. This method consists of adding 32% NaOH to the manure slurry sample in order to turn all NH4^+ in the sample to NH3. The sample is then heated in a closed system causing the NH3 to evaporate into a trap containing H3BO3 forming NH4[B(OH)4]. The remaining acid is then back-titrated with dilute HCl to give the concentration.
(§3) The pig manure slurry was made fresh on the day of measurement by mixing 10 g of feces with 30 ml of urine. Vials of approximately 4.5 ml of manure slurry were prepared. To each vial 0.5 ml of appropriate amounts of inhibitors were added. Controls were vials of 4.5 ml manure slurry with 0.5 ml H2O. After mixing inhibitors and pig manure slurry the vials were sealed and incubated at 25° C. with shaking for 5 h. After incubation, the ureolysis reaction was rapidly quenched by addition of 8 ml 32% NaOH before the sample was transferred to the Kjeldahl instrument for measurements.
Total ammoniacal nitrogen (TAN) was measured in pig manure slurry using the Kjeldahl method. This method consists of adding 32% NaOH to the manure sample in order to turn all NH4^+ in the sample to NH3. The sample is then heated in a closed system causing the NH3 to evaporate into a trap containing H3BO3 forming NH4[B(OH)4]. The remaining acid is then back-titrated with dilute HCl to give the concentration.
as §3, with “of either 30 mM TA and 10 mM NaF or 50 mM TA and 10 mM NaF was added. Vials containing 0.5 ml” for “of appropriate amounts”, “of either 51 mg/ml MTA (equal to 30 mM TA on a mass basis) or 85 mg/ml MTA (equal to 50 mM TA on a mass basis) with 10 mM TA and 10 mM NaF” for “of inhibitors”, “were also prepared.” for “were added.”, “ml H2O or 10 mM NaF.” for “ml H2O.”
The pig manure slurry was made fresh on the day of measurement by mixing 10 g of feces with 30 ml of urine. Manure separation was simulated by mixing 10 g of feces with 60 ml of urine for a ratio of 1:6 w:V.
For the “normal” ratio or unseparated manure slurry (1:3) 4.5 ml manure was placed in vials. Then 0.5 ml of TA (50 mM) and NaF (10 mM) were added to the manure slurry. For the separated manure slurry (1:6) 4.5 ml were mixed with 0.5 ml of TA (25 mM) and NaF (10 mM).
Controls were vials of 4.5 ml manure slurry with 0.5 ml H2O at either 1:3 or 1:6 w:V ratios of feces:urine. After mixing inhibitors and pig manure slurry the vials were sealed and incubated at 25° C. with shaking for 5 h. After incubation, the ureolysis reaction was rapidly quenched by addition of 8 ml 32% NaOH before the sample was transferred to the Kjeldahl instrument for measurements.
Tannic acid (TA), sodium fluoride (NaF), chlorogenic acid (CA), lignosulfonic acid (LA), lignin (L), chitosan low molecular weight (CLMW), NaOH, HCl and H3BO3 were purchased from Sigma-Aldrich. The mixed tannins (75% tannins) used in this study (VINOFERM TANNOROUGE) were purchased from Brouwland. The product contains tannins from chestnut. The green tea extract was purchased from Slimming Labs (Groeningen, Netherlands) and consists of 90% polyphenols of which 40% are epigallocatechin gallate. Total ammoniacal nitrogen (TAN) was measured in pig manure slurry using the Kjeldahl method as described in example 2 and example 7. The various compounds were tested as described for MTA in example 7 using appropriate concentrations.
Initial screenings were done in duplicate and the results are given as the average of the two measurements with no standard deviation (SD). […]

For the next data set, the target named is T1, jack bean urease (Canavalia ensiformis, UniProt P07374).
T1 construct: purchased Sigma-Aldrich
Kind of data set: cell-free urease activity assay (pH-based). It is filed as biochemical. How it is done:
as §1, §2
In urease inhibition assays 5 μl enzyme solution, 175 μl growth media, and 20 μl inhibitor solution were added.

For data set [2], the system named is 12 days old pig manure slurry. Kind of data set: methane production in anaerobic inoculum flasks (GC-FID). The following applies: 10 mM TA alone, 3 weeks. How it is done: This was done by transferring the TA-NaF treated manure slurry used in example 3 to 100 mL inoculum flasks on day 12. The manure slurry was weighed before inoculation and the headspace was flushed with helium (Linde Group) prior to encapsulation. Gas from the headspace of the inoculum flasks was sampled into 6 mL vacuum sealed exetainer vials (Labco Limited, Lampeter, UK) every week the following three weeks and stored for later CH4 analysis on a GC-FID. After sampling from the inoculum flasks, the pressure in the headspace was equalized with a needle.

Data set [3] relates to pig manure slurry. Kind of data set: headspace ammonia emissions from pig manure slurry (PTR-MS). The following applies: Tannic acid 10 mM; cumulated headspace emission, 22-24° C. How it is done: Ammonia emissions were measured in headspace experiments at ambient temperature (22-24° C.). Pig urine (30 ml) and 10 g of frozen pig feces were thawed and added to each of nine 100 mL reactors and mixed with tannic acid and sodium fluoride in different concentrations. Tannic acid and sodium fluoride was purchased from Sigma-Aldrich. A flow of 0.5 L±10% air/min was continuously applied to the headspace of each reactor with mass flow controllers (Bronkhorst EL-FLOW, Ruurlo, Netherlands). The air flow carried the emitted ammonia from the pig manure slurry in the reactors to a proton transfer reaction mass spectrometer (PTR-MS) (Ionicon Analytik, Innsbruck, Austria) for quantification. A PEEK valve (Bio-Chem Valve Inc., Boonton, NJ, USA) was used to switch between the nine reactors every 12 min. The PTR-MS was operated at a reduced electric field of 142 Townsend (2.15 mbar and 75° C. in the drift tube). Every 24 h, 3 ml of pig urine and 1 g of pig feces was thawed and supplemented to the reactors. Tannic acid and sodium fluoride was also supplemented every 24 h to maintain a constant inhibitor concentration in the manure. For acidification treatment, the manure slurry was acidified with H2SO4 to pH 5.5 every 24 h. The gas emissions were monitored continuously for 12 days. […]

The conditions of data set [4]: weak acidity due to the numerous phenol groups; cited from earlier work.

Several values for one entry are separate records, joined by “and”; a condition that tells them apart may be missing. Equal entries are not always repeated.

T1 sequence (P07374 whole entry, looked up): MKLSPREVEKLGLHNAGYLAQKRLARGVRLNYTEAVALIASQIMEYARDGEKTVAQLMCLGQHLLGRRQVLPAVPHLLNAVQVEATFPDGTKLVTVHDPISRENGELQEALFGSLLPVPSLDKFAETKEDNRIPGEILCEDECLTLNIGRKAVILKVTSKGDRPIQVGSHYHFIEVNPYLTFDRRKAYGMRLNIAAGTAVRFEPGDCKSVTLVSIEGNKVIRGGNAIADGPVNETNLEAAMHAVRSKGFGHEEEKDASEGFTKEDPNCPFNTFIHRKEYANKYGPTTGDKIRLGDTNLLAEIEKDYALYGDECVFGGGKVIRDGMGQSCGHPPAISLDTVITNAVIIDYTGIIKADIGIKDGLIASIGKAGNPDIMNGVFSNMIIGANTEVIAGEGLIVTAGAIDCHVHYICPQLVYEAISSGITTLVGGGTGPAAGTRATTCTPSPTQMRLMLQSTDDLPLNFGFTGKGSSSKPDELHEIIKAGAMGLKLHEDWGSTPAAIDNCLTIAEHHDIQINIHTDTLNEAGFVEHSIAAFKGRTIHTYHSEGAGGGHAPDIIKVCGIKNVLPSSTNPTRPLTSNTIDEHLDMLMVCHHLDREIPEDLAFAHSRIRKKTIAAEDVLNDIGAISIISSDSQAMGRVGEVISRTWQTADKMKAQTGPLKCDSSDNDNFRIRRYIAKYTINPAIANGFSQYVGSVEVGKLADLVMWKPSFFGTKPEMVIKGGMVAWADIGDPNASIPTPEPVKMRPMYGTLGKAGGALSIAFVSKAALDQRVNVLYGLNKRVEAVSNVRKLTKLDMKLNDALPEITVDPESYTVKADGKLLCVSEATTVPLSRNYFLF

For the compound `CC(=O)NO` [AHA, acetohydroxamic acid], the “Reduction in ureolytic activity” value with Klebsiella pneumoniae (AHA 0.2 mM) is 14 ± 6%. Besides, the “Reduction in ammonia production (Mean)” value was 14% and 14 ± 2.3% with pig manure slurry [1] (AHA 0.5 mM, pig manure slurry); 24 ± 3.4% with pig manure slurry [1] (AHA 1 mM, pig manure slurry).

On to `O=C(/C=C/c1ccc(O)c(O)c1)O[C@@H]1C[C@](O)(C(=O)O)C[C@@H](O)[C@H]1O` [CA, chlorogenic acid], for which the “Reduction in ammonia production (Mean ± SD)” value (shortened to “Reduction … (Mean ± SD)”) in the data set with pig manure slurry [1] (CA 5 mM (2.3 mg/ml), pig manure slurry, duplicate, no SD) was determined as 6%.

Turning to `NCCS` [Cysteamine], the “Reduction in ammonia production” value in the data set on pig manure slurry [1] (Cysteamine 1 mM, pig manure slurry, 25° C., 5 h) came out at 25%.

On to `O=C(O)CNCC(=O)O` [Iminodiacetic acid], for which the “Reduction in ammonia production” value with pig manure slurry [1] (Iminodiacetic acid 0.8 mM, pig manure slurry, 25° C., 5 h) stood at 19%.

Consider `O=C1C=CC(=O)N1c1ccccc1` [N-phenylmaleimide], for which, in the data set with pig manure slurry [1] (N-phenylmaleimide 3.9 mM, pig manure slurry, 25° C., 5 h), the “Reduction in ammonia production” value is 59%.

On to `[F-].[Na+]` [NaF, sodium fluoride], for which, in the data set with Klebsiella pneumoniae (0.3 mM fluoride alone), the inhibition of ureolysis is listed as 14.7%. Moreover, in the data set with Klebsiella pneumoniae (1.0 mM), the “ureolytic activity (pH change) relative to the uninhibited control” value was 0. Moreover, in the data set with Klebsiella pneumoniae (NaF 0.3 mM), the “reduction of pH change (FIG. 5)” value is given as 12-15%. Moreover, the “Reduction in concentration of NH3” value in the data set with pig manure slurry [1] (1 mM NaF, pig manure slurry, 25° C., 5 h (Example 7)) was found to be 17.7 ± 4%. Besides, the “Reduction … (Mean ± SD)” value in the data set on pig manure slurry [1] (NaF 1 mM, pig manure slurry (Example 10)) came to 9 ± 1.0%. Further, in the data set with pig manure slurry [1] (NaF 1 mM, pig manure slurry (Example 11)), the “Reduction in ammonia production (Mean)” value came to 9 ± 1.0%. For the same compound, the “Reduction in ammonia production” value with pig manure slurry [1] (NaF 1 mM, pig manure slurry, 25° C., 5 h (Example 2)) stood at 24%. Moreover, the “Reduction in ammonia production” value in the data set with pig manure slurry [1] (in solution, NaF 1 mM, pig manure slurry, 25° C., 5 h (Example 3)) is given as 8.6%. Besides, on jack bean urease (1.0 mM), the “reduction in initial rate of pH change” value came out at 89.4±1.0% and the “reduction of pH change” value is 80.6±3.0%.

On to `O=C(OC[C@H]1O[C@@H](OC(=O)c2cc(O)c(O)c(OC(=O)c3cc(O)c(O)c(O)c3)c2)[C@H](OC(=O)c2cc(O)c(O)c(OC(=O)c3cc(O)c(O)c(O)c3)c2)[C@@H](OC(=O)c2cc(O)c(O)c(OC(=O)c3cc(O)c(O)c(O)c3)c2)[C@@H]1OC(=O)c1cc(O)c(O)c(OC(=O)c2cc(O)c(O)c(O)c2)c1)c1cc(O)c(O)c(OC(=O)c2cc(O)c(O)c(O)c2)c1` [Tannic acid, tannic acid], for which, in the data set with Klebsiella pneumoniae (Klebsiella pneumoniae, 1.0 mM, read-out: reduction of ureolytic activity (pH change) relative to uninhibited control), the inhibition at 1000 µM was 21.3 ± 1.3%. In addition, the “Reduction in ureolytic activity” value was 16% and 16 ± 5% in the data set with Klebsiella pneumoniae (TA 0.05 mM, listed as TA); 9.4 ± 3% with Klebsiella pneumoniae (TA 0.1 mM); 3.9 ± 6% in the data set on Klebsiella pneumoniae (TA 0.2 mM). Further, the “inhibition of ureolytic activity” value in the data set with Klebsiella pneumoniae (tannic acid 0-0.8 mM alone) is 0-12%. For the same compound, in the data set with Klebsiella pneumoniae (tannic acid alone up to 0.8 mM), the “ureolytic pH change compared to the uninhibited control (FIG. 5)” value is given as “does not reduce the pH change significantly”. Besides, the “Reduction in ammonia production (Mean)” value in the data set with pig manure slurry [1] (TA 3 mM, pig manure slurry (Example 11)) was 0 ± 4%; in the data set with pig manure slurry [1] (TA 5 mM, pig manure slurry (Example 11)), 18 ± 1.3%. The “Reduction … (Mean ± SD)” value in the data set on pig manure slurry [1] (TA 5 mM (8.5 mg/ml), pig manure slurry (Example 10)) is on record as 18 ± 1.3%. Also, the “Reduction in ammonia production” value in the data set with pig manure slurry [1] (Tannic acid 10 mM, pig manure slurry, 25° C., 5 h (Example 2)) came to 17.6%^; with pig manure slurry [1] (in solution, Tannic acid 5 mM, pig manure slurry, 25° C., 5 h (Example 3)) it was 17.6%; in the data set on pig manure slurry [1] (in solution, Tannic acid 10 mM, pig manure slurry, 25° C., 5 h (Example 3)), 35.2%. The “pH change (reduced to)” value at jack bean urease (0.1 mM) worked out at 0. The “methane production, % of the uninhibited control (FIG. 3B)” value in data set [2] came to 0.01%. The “Reduction in ammonia emissions, 12 days” value in the data set with pig manure slurry [3] turned out to be 88.4%. Further, the pKa result in data set [4] is “around 6”.
